Reference: PubChem BioAssay (NCI)
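Compound exposure: 48 hours, 5 concentrations, 96-well plates. TGI: total growth inhibition.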

Tests used:
Assay in all cases: NCI anticancer screen, dose series, 48 h
[1] = test system: DLD-1 colon
[2] = test system: MOLT-4 leukemia
[3] = test system: RPMI-8226 leukemia
[4] = test system: DMS 273 small cell lung
[5] = test system: SR leukemia
[6] = test system: MALME-3M melanoma
[7] = test system: HOP-62 NSCLC
[8] = test system: TK-10 renal
[9] = test system: NCI-H460 lung
[10] = test system: IGROV1 ovarian
[11] = test system: SNB-19 CNS
[12] = test system: EKVX NSCLC
[13] = test system: UO-31 renal
[14] = test system: 786-0 renal
[15] = test system: SNB-75 CNS
[16] = test system: U251 CNS
[17] = test system: LOX IMVI melanoma
[18] = test system: OVCAR-8 ovarian
[19] = test system: HCT-15 colon
[20] = test system: KM12 colon
[21] = test system: HOP-92 NSCLC
[22] = test system: RXF-631 renal
[23] = test system: A498 renal
[24] = test system: OVCAR-5 ovarian
[25] = test system: CAKI-1 renal
[26] = test system: RXF 393 renal
[27] = test system: OVCAR-3 ovarian
[28] = test system: NCI-H522 lung
[29] = test system: SF-295 CNS
[30] = test system: NCI-H226 lung
[31] = test system: M19-MEL melanoma
[32] = test system: SW-620 colon
[33] = test system: SNB-78 CNS
[34] = test system: SK-MEL-5 melanoma
[35] = test system: LXFL 529 NSCLC
[36] = test system: XF 498 CNS
[37] = test system: SN12C renal
[38] = test system: HCT-116 colon
[39] = test system: CCRF-CEM leukemia
[40] = test system: SK-OV-3 ovarian
[41] = test system: HCC-2998 colon
[42] = test system: SF-268 CNS
[43] = test system: UACC-62 melanoma
[44] = test system: NCI-H23 lung
[45] = test system: COLO 205 colon
[46] = test system: SF-539 CNS
[47] = test system: UACC-257 melanoma
[48] = test system: KM20L2 colon
[49] = test system: OVCAR-4 ovarian
[50] = test system: K-562 leukemia
[51] = test system: HT29 colon
[52] = test system: M14 melanoma
[53] = test system: A549 NSCLC
[54] = test system: HL-60(TB) leukemia
[55] = test system: HOP-18 NSCLC
[56] = test system: SK-MEL-28 melanoma
[57] = test system: SK-MEL-2 melanoma
[58] = test system: ACHN renal
[59] = test system: DMS 114 small cell lung

Measured: TGI

Cc1ccc(S(=O)(=O)CNC(=S)CCCC(=S)NCS(=O)(=O)c2ccc(C)cc2)cc1
39.4 µM: [17]
> 100 µM: [1] | [2] | [3] | [4] | [5] | [6] | [7] | [8] | [9] | [10] | [11] | [12] | [13] | [14] | [15] | [16] | [18] | [19] | [20] | [22] | [23] | [24] | [25] | [26] | [27] | [28] | [29] | [30] | [31] | [32] | [33] | [34] | [35] | [36] | [37] | [38] | [39] | [40] | [41] | [42] | [43] | [44] | [45] | [46] | [47] | [48] | [49] | [50] | [51] | [52] | [53] | [54]
50.3 µM: [21]

COc1ccc(/C(Cl)=C(\C=O)c2ccc(F)cc2)cc1
80.6 µM: [22]
24.8 µM: [28]
41 µM: [25]
20 µM: [38]
31.6 µM: [29]
23.5 µM: [16]
64.7 µM: [37]
18.7 µM: [39]
58 µM: [27]
53.6 µM: [10]
50.3 µM: [1]
35.6 µM: [58]
27.9 µM: [34]
28.6 µM: [57]
67.9 µM: [30]
20.5 µM: [48]
51.7 µM: [55]
52.7 µM: [23]
77.1 µM: [40]
42.2 µM: [13]
56.4 µM: [4]
19.1 µM: [21]
59.3 µM: [7]
61.6 µM: [35]
> 100 µM: [8] | [11] | [12] | [18] | [56] | [32] | [50] | [52]
31.9 µM: [45]
72.9 µM: [44]
50.9 µM: [2]
89.3 µM: [42]
79.4 µM: [31]
20.1 µM: [9]
45.1 µM: [59]
53.1 µM: [33]
44.6 µM: [3]
50.2 µM: [46]
56 µM: [43]
8.33 µM: [15]
9.12 µM: [54]
31.2 µM: [19]
39.3 µM: [17]
48 µM: [6]
27.8 µM: [51]

CCOc1ccccc1NC(=O)CCc1nnc2s/c(=C\CCc3ccccc3)c(=O)n12
> 100 µM: [1] | [2] | [3] | [4] | [5] | [6] | [7] | [8] | [9] | [10] | [11] | [13] | [14] | [15] | [16] | [17] | [18] | [19] | [20] | [21] | [23] | [24] | [25] | [26] | [27] | [28] | [29] | [56] | [30] | [31] | [32] | [33] | [34] | [35] | [36] | [37] | [38] | [39] | [40] | [41] | [42] | [43] | [44] | [45] | [57] | [46] | [47] | [48] | [49] | [50] | [58] | [51] | [52] | [59] | [53] | [54]
